The target in one experiment is Pearl 1ECD (Homo sapiens, UniProt Q5VY43). Particulars: pulldown assays.
In another experiment the test system is AKT. Kind of experiment: AKT signaling immunoblot, platelets. The format is cell-based, human. The settings on record: platelets, vs BSA. How it is done: Prior to performing signaling assays, cells were trypsinized, centrifuged, suspended in basal media, and counted using an automated hemocytometer. Cells were further diluted in basal media to an assay-dependent concentration. Cells were then incubated with gentle agitation for 60 minutes to prevent cell attachment and reduce basal signaling. PP1, Dynasore, MK-2206, and Rapamycin were diluted in DMSO and used in assay concentrations of 10 μM, 100 μM, 10 μM, and respectively, for the final 20-30 minutes of incubation in basal media. An equal volume of DMSO was used as the negative control condition. […] 1 μg Pearl 1 polyclonal antibody was added as a specific positive control. 20% growth media or 2% fetal bovine serum, labeled “Serum” in figures, was added as a non-specific positive control. The cells were centrifuged at 300G for 3 minutes with the exception of platelets, which were centrifuged at 500G for 5 minutes. The cells were then incubated at 37° C. for 8-45 minutes, depending on the cell type and pathway of interest. The cells were lysed in radioimmunoprecipitation buffer (RIPA) containing a cocktail of protease and phosphatase inhibitors and universal nuclease. Immunoblots were performed by standard techniques, as briefly follows. Protein content was determined using a bicinchoninic acid assay with BSA standards (#23225, Pierce BCA Protein Assay Kit). Cell lysates were then reduced with dithiothreitol (DTT) in lithium dodecyl sulfate (LDS) sample buffer (#NP0007, Invitrogen). Equal protein amounts were added to polyacrylamide gels (#4561086, BioRad) and electrophoresed prior to transferring to a nitrocellulose or polyvinylidene fluoride membrane (#1620260, BioRad). Membranes were blocked in 5% BSA/Tris-buffered saline (TBS) with 0.1% Tween 20 for 30 minutes. The indicated primary antibodies were incubated with the pre-blocked membranes overnight at 4° C. Membranes were washed with TBS with 0.1% Tween 20, probed with fluorescent secondary antibodies, and imaged. β-actin or β-tubulin served as a loading control.
Whole blood was collected by venipuncture into either heparin vacutainers (BD, Franklin Lakes) for whole blood experiments or acid-citrate-dextrose (ACD) vacutainers (BD, Franklin Lakes) for platelet isolation studies. For platelet isolation, samples were supplemented with apyrase (Sigma, St Louis) and prostaglandin E1 (Cayman Chemical, Ann Arbor), and platelet-rich plasma (PRP) was prepared by centrifugation of the ACD whole blood for 20 minutes at 200G. Platelets were isolated from the PRP by centrifugation for 10 minutes at 1000G and resuspended in modified Tyrode's buffer twice at desired platelet counts and kept at 37° C. until used. Isolated platelets were used within 2 hours of preparation.
A general note: A western blot detects proteins with antibodies after separation by electrophoresis.

Another experiment deals with VSMCs. Kind of experiment: VSMC adhesion assay. Format: cell-based, mouse. Particulars: immobilized protein. The source says: Plates were ultraviolet (UV) sterilized before adding cells. […] Efficient Itgα9 knockdown was confirmed by qPCR.
Another experiment has as its system Integrin signaling. Nature of the experiment: Integrin signaling western blot, THP-1 cells. The format is cell-based, human. How it is done: Cells were resuspended in serum-free media (SFM) and incubated with gentle agitation to prevent cell attachment and reduce basal signaling. […] Cells were briefly centrifuged to the bottom of the wells and incubated for 8 min (for VSMCs) or 15 min (for THP-1 cells) before lysis with cell lysis buffer (#9803, Cell Signaling Technologies) containing a cocktail of protease and phosphatase inhibitors. Western blots were performed by standard techniques, as briefly follows. Protein content was determined using a bicinchoninic acid assay with BSA standards (#23225, Pierce™ BCA Protein Assay Kit). Cell lysates were then reduced with DTT in lithium dodecyl sulfate sample buffer (#NP0007, Invitrogen). Equal protein amounts were added to polyacrylamide gels (#4561086, BioRad) and electrophoresed prior to transferring to a nitrocellulose or polyvinylidene fluoride membrane (#1620260, BioRad). Membranes were blocked in 5% BSA/Tris-Buffered Saline with tween 20 for 30 min. The indicated primary antibodies were incubated with the pre-blocked membranes for overnight at 4° C. Membranes were washed with Tris-Buffered Saline with tween 20, probed with fluorescent secondary antibodies, and imaged. β-actin or β-tubulin served as a loading control.

The next experiment addresses T1, Pearl 1 (Homo sapiens, UniProt Q5VY43).
T1 construct: endogenous in cells; host or cells: freshly isolated human platelets
T1 sequence (Q5VY43 21-1037): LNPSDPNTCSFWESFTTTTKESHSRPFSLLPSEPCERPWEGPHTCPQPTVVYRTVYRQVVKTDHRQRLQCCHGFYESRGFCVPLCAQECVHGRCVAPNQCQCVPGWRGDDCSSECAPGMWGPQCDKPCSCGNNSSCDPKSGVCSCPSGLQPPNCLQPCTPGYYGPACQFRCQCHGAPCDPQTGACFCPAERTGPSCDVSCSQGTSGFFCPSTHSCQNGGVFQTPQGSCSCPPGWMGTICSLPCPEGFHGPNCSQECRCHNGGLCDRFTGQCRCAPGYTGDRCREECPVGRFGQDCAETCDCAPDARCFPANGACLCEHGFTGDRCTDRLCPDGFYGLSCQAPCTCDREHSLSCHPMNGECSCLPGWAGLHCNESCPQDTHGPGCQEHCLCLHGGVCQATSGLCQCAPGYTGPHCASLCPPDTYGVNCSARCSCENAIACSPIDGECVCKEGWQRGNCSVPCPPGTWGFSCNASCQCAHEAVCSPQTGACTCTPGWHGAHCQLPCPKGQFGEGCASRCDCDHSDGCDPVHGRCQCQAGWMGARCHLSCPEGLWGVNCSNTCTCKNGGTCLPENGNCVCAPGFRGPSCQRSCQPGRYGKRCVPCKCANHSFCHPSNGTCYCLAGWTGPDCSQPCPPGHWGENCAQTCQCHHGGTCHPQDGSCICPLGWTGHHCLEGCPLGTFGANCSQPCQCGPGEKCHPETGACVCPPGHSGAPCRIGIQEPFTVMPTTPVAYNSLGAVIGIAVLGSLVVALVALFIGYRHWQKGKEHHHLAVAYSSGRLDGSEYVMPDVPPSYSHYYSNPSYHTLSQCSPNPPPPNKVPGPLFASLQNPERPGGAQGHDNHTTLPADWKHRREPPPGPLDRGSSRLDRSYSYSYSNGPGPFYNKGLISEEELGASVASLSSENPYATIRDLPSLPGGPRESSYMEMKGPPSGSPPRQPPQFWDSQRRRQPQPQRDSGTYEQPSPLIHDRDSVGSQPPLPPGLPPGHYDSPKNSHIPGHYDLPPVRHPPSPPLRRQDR
Kind of experiment: Pearl 1 immunoprecipitation and pTyrosine immunoblot, platelets. The format is cell-based. The settings on record: 15 minutes exposure, vs BSA. How it is done: Subsequently, 204, of BSA-blocked Invitrogen Protein A Dynabeads slurry was added, followed by rotation for 45 minutes. The beads were separated using magnetism and washed with RIPA buffer 4-5 times, then resuspended with reducing LDS sample buffer and analyzed by immunoblot assay. Bands for p-tyrosine and Pearl 1 were detected at ˜140 kDa.
Prior to performing signaling assays, cells were trypsinized, centrifuged, suspended in basal media, and counted using an automated hemocytometer. Cells were further diluted in basal media to an assay-dependent concentration. Cells were then incubated with gentle agitation for 60 minutes to prevent cell attachment and reduce basal signaling. PP1, Dynasore, MK-2206, and Rapamycin were diluted in DMSO and used in assay concentrations of 10 μM, 100 μM, 10 μM, and respectively, for the final 20-30 minutes of incubation in basal media. An equal volume of DMSO was used as the negative control condition. […] 1 μg Pearl 1 polyclonal antibody was added as a specific positive control. 20% growth media or 2% fetal bovine serum, labeled “Serum” in figures, was added as a non-specific positive control. The cells were centrifuged at 300G for 3 minutes with the exception of platelets, which were centrifuged at 500G for 5 minutes. […] Protein content was determined using a bicinchoninic acid assay with BSA standards (#23225, Pierce BCA Protein Assay Kit). […]

Experimental findings from US20230159620A1, “COMPOSITIONS AND METHODS OF TREATMENT FOR VASCULAR DISEASES AND THROMBOSIS” (Washington University, priority 2021, published 2023) are described below.

Procedure for Pearl 1ECD: The assay buffer consisted of lmg/mL BSA, 0.01% Tween 20, and 10 mM Ca^2+ in PBS. The proteins were incubated together for two hours while rotating. Where indicated, 2 μg primary antibodies were added during the final 30 minutes of the initial incubation. Following the incubation, aliquots were reserved as the input fraction. Subsequently, 6-10 μL slurry of Pierce Anti-c-Myc Magnetic Beads, Invitrogen Dynabeads Protein G beads, or Pierce Streptavidin Magnetic Bead slurry were added, followed by a 1-hour incubation at 20° C. with gentle agitation. Beads were washed in PBS +0.01% Tween 20 and resuspended reducing LDS sample buffer and analyzed by immunoblot assay.

Turning to “SVEP1: recombinant murine SVEP1 extracellular matrix protein with Myc and poly-histidine tag, expressed in 293F cells”, the “co-immunoprecipitation of Pearl 1ECD with Myc-tagged SVEP1” value with Pearl 1ECD is recorded as “co-immunoprecipitates”. In addition, the “adhesion of THP-1 cells” value with THP-1 cells is “adhered to SVEP1 in a dose-dependent manner”. In addition, the “AKT phosphorylation (pAKT)” value in the experiment with AKT was “induced AKT phosphorylation”. Also, the “adhesion of VSMCs” value in the experiment with VSMCs is on record as “adhere to SVEP1 in a dose-dependent manner”. Also, in the experiment with Integrin signaling, the integrin signaling entry is recorded as “activated”. Besides, the “phospho-tyrosine signal of Pearl 1 (140 kDa)” value with Pearl 1 is given as “robust phospho-tyrosine signal”.
